For 39 molecules, IC50 results are on record in patent US12065445B2, “CDK2 inhibitors and methods of using the same” (Cedilla Therapeutics, Inc., priority 2021, dated 2024).

The experiment concerns Kuramochi cells. Nature of the experiment: BrdU Cell Proliferation Assay. In kind it is cell-based. As to conditions: read-out: BrdU - KURAMOCHI.1: IC50. On the procedure:
A BrdU assay was used as a measure of proliferation based on the DNA replication process of proliferating cells. BrdU, a pyrimidine analog, is added to the cell culture and incorporated into the DNA of proliferating cells. The presence of the BrdU analog was then measured through a colorimetric ELISA. After fixation and permeabilization of cells, peroxidase-conjugated antibody recognizing BrdU is added and allowed to incubate, followed by thorough washing to remove unbound antibody. In order to quantify the amount of bound antibody, peroxidase substrate is added and produces a color that can be measured at 450 nm.
On day −1, Kuramochi cells (Sekisui XenoTech JCRB0098) were seeded at 2,000 cells/well in columns 2-12 of a 96 well plate (Corning, CLS3596) in 150 μL media and allowed to adhere overnight at 37 degree with 5% CO2.
On day 0, the source plate was prepared by adding 10 mM compounds and performing 3-fold serial dilutions for a 10-point dose response of each compound. Using a multichannel pipette, 2 μL of the contents of the source plate were stamped into an intermediate plate with 500 μL of RPMI 1640 Media, GlutaMAX Supplement (Life Technologies, 61870127) in each well of a Nunc 96 DeepWell™ plate, non-treated 96 DeepWell plate, 2 mL/well, sterile, natural, 60/cs (Sigma Z717274) and mixed thoroughly. 50 μL from each well of this intermediate plate were added to 4 wells of a 96-well plate with previously seeded Kuramochi cells.
On day 4, the plates were developed using the BrdU ELISA Cell Proliferation Assay according to manufacturer's instructions (Roche, 11647229001). Briefly, BrdU was diluted 1:100 in Gibco®, OptiMEM® and 20 μL/well was added, shaken for 10 minutes at 350 rpm, and then returned to the incubator for 1 hour. Following incubation, the medium was discarded, and the cells were fixed by adding 200 μL of Fix/Denature solution. The anti-BrdU peroxidase antibody was diluted 1:1000 in OptiMEM, added at 100 μL/well, and incubated while shaking (350 rpm) for one hour. Three washes with PBS were performed to remove any unbound antibody, followed by the addition of 100 μL of substrate solution to each well. 25 μL/well of 1M sulfuric acid solution was then added to halt the reaction, and plates were read out using an Envision spectrophotometer (Perkin Elmer) set to read 450 nm absorbance. Background absorbance values from empty wells were subtracted from all samples and then normalized to DMSO treated wells.
On to `CNC(=O)[C@@H](NC(=O)C1CN(C(=O)c2cnn(Cc3ccccc3)c2)CC12CN(C(=O)C1CC1(C)C)C2)[C@@H](C)OCC1CCCCC1` (mixture of isomers) [I-12], for which the IC50 was 0.5 to 5 µM. The same measure for `C[C@H](CNC(=O)C1CN(C(=O)c2cnn(Cc3ccccc3)c2)CC12CN(C(=O)C1CC1(C)C)C2)OCc1ccccc1` (stereo partly drawn) [I-7]: above 10 µM; for `C[C@@H](OCc1ccccc1)[C@H](NC(=O)C1CN(C(=O)c2cnn(Cc3ccccc3)c2)CC12CN(C(=O)[C@H]1CC1(C)C)C2)C(=O)O` (stereo partly drawn) [I-9, (2S,3R)-2-(6-(1-benzyl-1H-pyrazole-4-carbonyl)-2-((S)-2,2-dimethylcyclopropanecarbonyl)-2,6-diazaspiro[3.4]octane-8-carboxamido)-3-(benzyloxy)butanoic acid]: above 10 µM. For `CNC(=O)[C@@H](NC(=O)C1CN(C(=O)c2cnn(Cc3cccnc3)c2)CC12CN(C(=O)C1CC1(C)C)C2)[C@@H](C)OCc1ccccc1` (stereo partly drawn) [I-15] the value was above 10 µM.

Turning to `CNC(=O)[C@@H](NC(=O)[C@@H]1CN(Cc2cnn(Cc3ccccc3)c2)CC12CN(C(=O)[C@H]1CC1(C)C)C2)[C@@H](C)OCc1ccccc1` [I-16A], the IC50 was above 10 µM. Consider `CNC(=O)[C@@H](NC(=O)[C@H]1CN(Cc2cnn(Cc3ccccc3)c2)CC12CN(C(=O)[C@H]1CC1(C)C)C2)[C@@H](C)OCc1ccccc1` [I-16B], for which the IC50 is above 10 µM. For `CNC(=O)[C@@H](NC(=O)[C@@H]1CN(C(=O)c2cnn(CC3CCN(C(C)=O)CC3)c2)CC12CN(C(=O)[C@H]1CC1(C)C)C2)[C@@H](C)OCc1ccccc1` [I-17A] the value was above 10 µM; for `CNC(=O)[C@@H](NC(=O)[C@H]1CN(C(=O)c2cnn(CC3CCN(C(C)=O)CC3)c2)CC12CN(C(=O)[C@H]1CC1(C)C)C2)[C@@H](C)OCc1ccccc1` [I-17B], above 10 µM. In the case of `CNC(=O)[C@@H](NC(=O)[C@@H]1CN(C(=O)c2cnn(CC3CCNCC3)c2)CC12CN(C(=O)[C@H]1CC1(C)C)C2)[C@@H](C)OCc1ccccc1` [I-19A], the half-maximal inhibitory concentration (IC50) was above 10 µM. For `CNC(=O)[C@@H](NC(=O)[C@H]1CN(C(=O)c2cnn(CC3CCNCC3)c2)CC12CN(C(=O)[C@H]1CC1(C)C)C2)[C@@H](C)OCc1ccccc1` [I-19B] the value was above 10 µM; for `C[C@@H](OCc1ccccc1)[C@H](NC(=O)C1CN(C(=O)c2cnn(Cc3ccccc3)c2)CC12CN(C(=O)[C@H]1CC1(C)C)C2)C(=O)NCC#CCO` (stereo partly drawn) [I-20], above 10 µM. The same measure for `C[C@@H](OCc1ccccc1)C(NC(=O)C1CN(C(=O)c2cnn(Cc3ccccc3)c2)CC12CN(C(=O)[C@H]1CC1(C)C)C2)C(=O)NCCOCCOCCO` (stereo partly drawn) [I-21]: above 10 µM; for `C[C@@H]1C[C@H](C)CN(C(=O)[C@@H](NC(=O)C2CN(C(=O)c3cnn(Cc4ccccc4)c3)CC23CN(C(=O)[C@H]2CC2(C)C)C3)[C@@H](C)OCc2ccccc2)C1` (stereo partly drawn) [I-22]: 0.5 to 5 µM. As for `CNC(=O)[C@@H](NC(=O)[C@@H]1CN(C(=O)c2cnn(CC3CCN(C)CC3)c2)CC12CN(C(=O)[C@H]1CC1(C)C)C2)[C@@H](C)OCc1ccccc1` [I-23A], the IC50 was above 10 µM. Regarding `CNC(=O)[C@@H](NC(=O)[C@H]1CN(C(=O)c2cnn(CC3CCN(C)CC3)c2)CC12CN(C(=O)[C@H]1CC1(C)C)C2)[C@@H](C)OCc1ccccc1` [I-23B], the half-inhibitory concentration (IC50) was above 10 µM. The same measure for `CNC(=O)[C@@H](NC(=O)[C@@H]1CN(C(=O)c2cncs2)CC12CN(C(=O)[C@H]1CC1(C)C)C2)[C@@H](C)OCc1ccccc1` [I-24A, (S)—N-((2S,3R)-3-(benzyloxy)-1-(methylamino)-1-oxobutan-2-yl)-2-((S)-2,2-dimethylcyclopropane-1-carbonyl)-6-(thiazole-5-carbonyl)-2,6-diazaspiro[3.4]octane-8-carboxamide]: above 10 µM; for `CNC(=O)[C@@H](NC(=O)[C@H]1CN(C(=O)c2cncs2)CC12CN(C(=O)[C@H]1CC1(C)C)C2)[C@@H](C)OCc1ccccc1` [I-24B]: above 10 µM; for `CNC(=O)[C@@H](NC(=O)[C@@H]1CN(C(=O)c2cnn(Cc3ccccc3)c2)CC12CN(C(=O)Cc1ccccc1)C2)[C@@H](C)OCc1ccccc1` [I-25A, (S)-6-(1-benzyl-1H-pyrazole-4-carbonyl)-N-((2S,3R)-3-(benzyloxy)-1-(methylamino)-1-oxobutan-2-yl)-2-(2-phenylacetyl)-2,6-diazaspiro[3.4]octane-8-carboxamide]: above 10 µM. For `CNC(=O)[C@@H](NC(=O)[C@H]1CN(C(=O)c2cnn(Cc3ccccc3)c2)CC12CN(C(=O)Cc1ccccc1)C2)[C@@H](C)OCc1ccccc1` [I-25B] the value was above 10 µM; for `CNC(=O)[C@@H](NC(=O)[C@@H]1CN(C(=O)c2cnn(Cc3ccccc3)c2)CC12CN(C(=O)c1ccccc1)C2)[C@@H](C)OCc1ccccc1` [I-26A], above 10 µM. For `CNC(=O)[C@@H](NC(=O)[C@H]1CN(C(=O)c2cnn(Cc3ccccc3)c2)CC12CN(C(=O)c1ccccc1)C2)[C@@H](C)OCc1ccccc1` [I-26B] the value was above 10 µM. With `CNC(=O)[C@@H](NC(=O)[C@@H]1CN(C(=O)c2cnn(Cc3ccccc3)c2)CC12CN(C(=O)CC1CCC1)C2)[C@@H](C)OCc1ccccc1` [I-27A], the IC50 is above 10 µM. As for `CNC(=O)[C@@H](NC(=O)[C@H]1CN(C(=O)c2cnn(Cc3ccccc3)c2)CC12CN(C(=O)CC1CCC1)C2)[C@@H](C)OCc1ccccc1` [I-27B], the IC50 was above 10 µM. With `C[C@@H](OCc1ccccc1)[C@H](NC(=O)C1CN(C(=O)c2cnn(Cc3ccccc3)c2)CC12CN(C(=O)[C@H]1CC1(C)C)C2)C(=O)NCC#CCN` (stereo partly drawn) [I-28], the IC50 was above 10 µM. In the case of `C[C@@H](OCc1ccccc1)[C@H](NC(=O)C1CN(C(=O)c2cnn(Cc3ccccc3)c2)CC12CN(C(=O)[C@H]1CC1(C)C)C2)C(=O)NCCC(=O)O` (stereo partly drawn) [I-29], the IC50 was above 10 µM. Turning to `C[C@@H](OCc1ccccc1)[C@H](NC(=O)C1CN(C(=O)c2cnn(Cc3ccccc3)c2)CC12CN(C(=O)[C@H]1CC1(C)C)C2)C(=O)NCCO` (stereo partly drawn) [I-30], the IC50 is above 10 µM. For `C[C@@H](OCc1ccccc1)[C@H](NC(=O)C1CN(C(=O)c2cnn(Cc3ccccc3)c2)CC12CN(C(=O)[C@H]1CC1(C)C)C2)C(=O)NCCN` (stereo partly drawn) [I-31] the value was above 10 µM. In the case of `C[C@@H](OCc1ccccc1)[C@H](NC(=O)C1CN(C(=O)c2cnn(Cc3ccccc3)c2)CC12CN(C(=O)[C@H]1CC1(C)C)C2)C(=O)N1CCNCC1` (stereo partly drawn) [I-32], the IC50 was above 10 µM.

In the case of `CNC(=O)[C@@H](NC(=O)[C@@H]1CN(C(=O)c2cnn(C)c2)CC12CN(C(=O)[C@H]1CC1(C)C)C2)[C@@H](C)OCc1ccccc1` [I-33A], the IC50 was above 10 µM. The same measure for `CNC(=O)[C@@H](NC(=O)[C@H]1CN(C(=O)c2cnn(C)c2)CC12CN(C(=O)[C@H]1CC1(C)C)C2)[C@@H](C)OCc1ccccc1` [I-33B]: above 10 µM; for `CNC(=O)[C@@H](NC(=O)[C@@H]1CN(C(=O)C2CCOCC2)CC12CN(C(=O)[C@H]1CC1(C)C)C2)[C@@H](C)OCc1ccccc1` [I-38A]: above 10 µM; for `CNC(=O)[C@@H](NC(=O)[C@H]1CN(C(=O)C2CCOCC2)CC12CN(C(=O)[C@H]1CC1(C)C)C2)[C@@H](C)OCc1ccccc1` [I-38B]: above 10 µM.

Take `CNC(=O)[C@@H](NC(=O)[C@H]1CN(C(=O)c2cnco2)CC12CN(C(=O)[C@H]1CC1(C)C)C2)[C@@H](C)OCc1ccccc1` [I-39B]: the IC50 is above 10 µM.

Consider `CNC(=O)[C@@H](NC(=O)[C@@H]1CN(Cc2ccccn2)CC12CN(C(=O)[C@H]1CC1(C)C)C2)[C@@H](C)OCc1ccccc1` [I-40A], for which the IC50 is above 10 µM.

In the case of `CNC(=O)[C@@H](NC(=O)[C@H]1CN(Cc2ccccn2)CC12CN(C(=O)[C@H]1CC1(C)C)C2)[C@@H](C)OCc1ccccc1` [I-40B], the IC50 was above 10 µM. `CNC(=O)[C@@H](NC(=O)[C@@H]1CN(C(=O)c2cn[nH]c2)CC12CN(C(=O)CC1CC1)C2)[C@@H](C)OCc1ccccc1` [I-41A, (S)—N-((2S,3R)-3-(benzyloxy)-1-(methylamino)-1-oxobutan-2-yl)-2-(2-cyclopropylacetyl)-6-(1H-pyrazole-4-carbonyl)-2,6-diazaspiro[3.4]octane-8-carboxamide]: the IC50 is above 10 µM. With `CNC(=O)[C@@H](NC(=O)[C@H]1CN(C(=O)c2cn[nH]c2)CC12CN(C(=O)CC1CC1)C2)[C@@H](C)OCc1ccccc1` [I-41B], the IC50 is above 10 µM. The same measure for `CNC(=O)[C@@H](NC(=O)[C@@H]1CN(C(=O)c2cccnc2)CC12CN(C(=O)[C@H]1CC1(C)C)C2)[C@@H](C)OCc1ccccc1` [I-42A]: above 10 µM; for `CNC(=O)[C@@H](NC(=O)[C@H]1CN(C(=O)c2cccnc2)CC12CN(C(=O)[C@H]1CC1(C)C)C2)[C@@H](C)OCc1ccccc1` [I-42B]: above 10 µM.

By IC50 is commonly meant the concentration that gives 50% inhibition.
